According to PubChem BioAssay (NCI):
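96-well plates; 48 h exposure; 5 concentrations. Endpoints by linear interpolation between flanking doses. Not reached: highest tested concentration assigned. TGI is the concentration that stops growth completely.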

What was measured:
Assay in all cases: inhibition of tumour cell growth, NCI panel, 48 h
A498 renal = system: A498 renal
NCI-H460 lung = system: NCI-H460 lung
SF-539 CNS = system: SF-539 CNS
MDA-N = system: MDA-N
RXF 393 renal = system: RXF 393 renal
OVCAR-4 ovarian = system: OVCAR-4 ovarian
NCI/ADR-RES ovarian = system: NCI/ADR-RES ovarian
HOP-62 NSCLC = system: HOP-62 NSCLC
SNB-19 CNS = system: SNB-19 CNS
HS 578T breast = system: HS 578T breast
MDA-MB-231 breast = system: MDA-MB-231 breast
CCRF-CEM leukemia = system: CCRF-CEM leukemia
MOLT-4 leukemia = system: MOLT-4 leukemia
SN12C renal = system: SN12C renal
M14 melanoma = system: M14 melanoma
PC-3 prostate = system: PC-3 prostate
CAKI-1 renal = system: CAKI-1 renal
HCT-15 colon = system: HCT-15 colon
OVCAR-5 ovarian = system: OVCAR-5 ovarian
OVCAR-3 ovarian = system: OVCAR-3 ovarian
LOX IMVI melanoma = system: LOX IMVI melanoma
EKVX NSCLC = system: EKVX NSCLC
UACC-62 melanoma = system: UACC-62 melanoma
RPMI-8226 leukemia = system: RPMI-8226 leukemia
DU-145 prostate = system: DU-145 prostate
COLO 205 colon = system: COLO 205 colon
SW-620 colon = system: SW-620 colon
A549 NSCLC = system: A549 NSCLC
SF-295 CNS = system: SF-295 CNS
HCC-2998 colon = system: HCC-2998 colon
T-47D breast = system: T-47D breast
SK-MEL-2 melanoma = system: SK-MEL-2 melanoma
SR leukemia = system: SR leukemia
UO-31 renal = system: UO-31 renal
MALME-3M melanoma = system: MALME-3M melanoma
OVCAR-8 ovarian = system: OVCAR-8 ovarian
SNB-75 CNS = system: SNB-75 CNS
ACHN renal = system: ACHN renal
TK-10 renal = system: TK-10 renal
SK-MEL-28 melanoma = system: SK-MEL-28 melanoma
SF-268 CNS = system: SF-268 CNS
SK-MEL-5 melanoma = system: SK-MEL-5 melanoma
HL-60(TB) leukemia = system: HL-60(TB) leukemia
MCF7 breast = system: MCF7 breast
K-562 leukemia = system: K-562 leukemia
SK-OV-3 ovarian = system: SK-OV-3 ovarian
KM12 colon = system: KM12 colon
IGROV1 ovarian = system: IGROV1 ovarian
NCI-H226 lung = system: NCI-H226 lung
U251 CNS = system: U251 CNS
NCI-H23 lung = system: NCI-H23 lung
NCI-H522 lung = system: NCI-H522 lung
BT-549 breast = system: BT-549 breast
HCT-116 colon = system: HCT-116 colon
786-0 renal = system: 786-0 renal
UACC-257 melanoma = system: UACC-257 melanoma
MDA-MB-435 = system: MDA-MB-435
HT29 colon = system: HT29 colon
HOP-92 NSCLC = system: HOP-92 NSCLC

For `CCN1C(=O)C(C)S/C1=N\NC(=O)CSc1nc2ccccc2c(=O)n1CC` (stereo not given), the TGI (A498 renal) was over 100 µM, the TGI (NCI-H460 lung) was 20.4 µM and the TGI (SF-539 CNS) was over 100 µM. The TGI (MDA-N) was over 100 µM, the TGI (RXF 393 renal) was over 100 µM and the TGI (OVCAR-4 ovarian) was over 100 µM. It also gave a TGI (NCI/ADR-RES ovarian) of over 100 µM, a TGI (HOP-62 NSCLC) of over 100 µM and a TGI (SNB-19 CNS) of over 100 µM. The TGI (HS 578T breast) was over 100 µM, the TGI (MDA-MB-231 breast) was over 100 µM and the TGI (CCRF-CEM leukemia) was over 100 µM. It also gave a TGI (MOLT-4 leukemia) of over 100 µM, a TGI (SN12C renal) of over 100 µM and a TGI (M14 melanoma) of over 100 µM. For the same compound, the TGI (PC-3 prostate) was over 100 µM, the TGI (CAKI-1 renal) was over 100 µM and the TGI (HCT-15 colon) was over 100 µM. The TGI (OVCAR-5 ovarian) was over 100 µM, the TGI (OVCAR-3 ovarian) was over 100 µM and the TGI (LOX IMVI melanoma) was over 100 µM. The TGI (EKVX NSCLC) was over 100 µM, the TGI (UACC-62 melanoma) was over 100 µM and the TGI (RPMI-8226 leukemia) was over 100 µM. It also gave a TGI (DU-145 prostate) of over 100 µM, a TGI (COLO 205 colon) of over 100 µM and a TGI (SW-620 colon) of over 100 µM. For the same compound, the TGI (A549 NSCLC) was over 100 µM, the TGI (SF-295 CNS) was over 100 µM and the TGI (HCC-2998 colon) was over 100 µM. It also gave a TGI (T-47D breast) of over 100 µM, a TGI (SK-MEL-2 melanoma) of over 100 µM and a TGI (SR leukemia) of over 100 µM. The TGI (UO-31 renal) was over 100 µM, the TGI (MALME-3M melanoma) was over 100 µM and the TGI (OVCAR-8 ovarian) was over 100 µM. It also gave a TGI (SNB-75 CNS) of over 100 µM, a TGI (ACHN renal) of over 100 µM and a TGI (TK-10 renal) of over 100 µM. It also gave a TGI (SK-MEL-28 melanoma) of over 100 µM, a TGI (SF-268 CNS) of over 100 µM and a TGI (SK-MEL-5 melanoma) of over 100 µM. For the same compound, the TGI (HL-60(TB) leukemia) was over 100 µM, the TGI (MCF7 breast) was over 100 µM and the TGI (K-562 leukemia) was over 100 µM. It also gave a TGI (SK-OV-3 ovarian) of over 100 µM, a TGI (KM12 colon) of over 100 µM and a TGI (IGROV1 ovarian) of over 100 µM. For the same compound, the TGI (NCI-H226 lung) was over 100 µM, the TGI (U251 CNS) was over 100 µM and the TGI (NCI-H23 lung) was over 100 µM. For the same compound, the TGI (NCI-H522 lung) was over 100 µM, the TGI (BT-549 breast) was over 100 µM and the TGI (HCT-116 colon) was over 100 µM. It also gave a TGI (786-0 renal) of over 100 µM, a TGI (UACC-257 melanoma) of over 100 µM and a TGI (MDA-MB-435) of over 100 µM.

Work on `COc1cc2cccc(N)c2cc1OC` yielded a TGI (A498 renal) of over 100 µM, a TGI (NCI-H460 lung) of over 100 µM and a TGI (SF-539 CNS) of over 100 µM. For the same compound, the TGI (MDA-N) was over 100 µM, the TGI (RXF 393 renal) was over 100 µM and the TGI (OVCAR-4 ovarian) was over 100 µM. The TGI (NCI/ADR-RES ovarian) was over 100 µM, the TGI (HOP-62 NSCLC) was over 100 µM and the TGI (SNB-19 CNS) was over 100 µM. It also gave a TGI (HS 578T breast) of over 100 µM, a TGI (MDA-MB-231 breast) of over 100 µM and a TGI (CCRF-CEM leukemia) of over 100 µM. For the same compound, the TGI (MOLT-4 leukemia) was over 100 µM, the TGI (SN12C renal) was over 100 µM and the TGI (M14 melanoma) was over 100 µM. The TGI (PC-3 prostate) was over 100 µM, the TGI (CAKI-1 renal) was over 100 µM and the TGI (HCT-15 colon) was over 100 µM. For the same compound, the TGI (OVCAR-5 ovarian) was over 100 µM, the TGI (OVCAR-3 ovarian) was over 100 µM and the TGI (LOX IMVI melanoma) was over 100 µM. The TGI (EKVX NSCLC) was over 100 µM, the TGI (UACC-62 melanoma) was over 100 µM and the TGI (RPMI-8226 leukemia) was over 100 µM. For the same compound, the TGI (DU-145 prostate) was over 100 µM, the TGI (COLO 205 colon) was over 100 µM and the TGI (SW-620 colon) was over 100 µM. It also gave a TGI (A549 NSCLC) of over 100 µM, a TGI (SF-295 CNS) of over 100 µM and a TGI (HCC-2998 colon) of over 100 µM. It also gave a TGI (T-47D breast) of over 100 µM, a TGI (SK-MEL-2 melanoma) of over 100 µM and a TGI (SR leukemia) of over 100 µM. It also gave a TGI (UO-31 renal) of over 100 µM, a TGI (MALME-3M melanoma) of over 100 µM and a TGI (OVCAR-8 ovarian) of over 100 µM. The TGI (SNB-75 CNS) was over 100 µM, the TGI (ACHN renal) was over 100 µM and the TGI (TK-10 renal) was over 72 µM. For the same compound, the TGI (SK-MEL-28 melanoma) was over 100 µM, the TGI (SF-268 CNS) was over 100 µM and the TGI (SK-MEL-5 melanoma) was over 100 µM. The TGI (HL-60(TB) leukemia) was over 100 µM, the TGI (MCF7 breast) was over 100 µM and the TGI (K-562 leukemia) was over 100 µM. The TGI (SK-OV-3 ovarian) was over 100 µM, the TGI (KM12 colon) was over 100 µM and the TGI (IGROV1 ovarian) was over 100 µM. The TGI (NCI-H226 lung) was over 100 µM, the TGI (U251 CNS) was over 100 µM and the TGI (NCI-H23 lung) was over 100 µM. For the same compound, the TGI (NCI-H522 lung) was over 100 µM, the TGI (BT-549 breast) was over 92.6 µM and the TGI (HCT-116 colon) was over 100 µM. It also gave a TGI (786-0 renal) of over 100 µM, a TGI (UACC-257 melanoma) of over 100 µM and a TGI (MDA-MB-435) of over 100 µM. The TGI (HT29 colon) was over 100 µM.

For `CCN(CC)c1ccc2cc(C(=O)Nc3ccccc3)c(=N)oc2c1`, the TGI (NCI-H460 lung) was over 100 µM, the TGI (SF-539 CNS) was over 100 µM and the TGI (MDA-N) was over 100 µM. It also gave a TGI (RXF 393 renal) of over 100 µM, a TGI (OVCAR-4 ovarian) of over 100 µM and a TGI (NCI/ADR-RES ovarian) of over 100 µM. It also gave a TGI (HOP-62 NSCLC) of over 100 µM, a TGI (SNB-19 CNS) of over 100 µM and a TGI (HS 578T breast) of over 100 µM. The TGI (MDA-MB-231 breast) was over 100 µM, the TGI (CCRF-CEM leukemia) was over 100 µM and the TGI (MOLT-4 leukemia) was over 100 µM. For the same compound, the TGI (SN12C renal) was over 100 µM, the TGI (M14 melanoma) was over 100 µM and the TGI (PC-3 prostate) was over 100 µM. It also gave a TGI (CAKI-1 renal) of over 100 µM, a TGI (HCT-15 colon) of over 100 µM and a TGI (OVCAR-5 ovarian) of over 100 µM. The TGI (LOX IMVI melanoma) was over 100 µM, the TGI (EKVX NSCLC) was over 100 µM and the TGI (UACC-62 melanoma) was over 100 µM. For the same compound, the TGI (RPMI-8226 leukemia) was over 100 µM, the TGI (HOP-92 NSCLC) was over 100 µM and the TGI (DU-145 prostate) was over 100 µM. For the same compound, the TGI (COLO 205 colon) was over 100 µM, the TGI (SW-620 colon) was over 100 µM and the TGI (A549 NSCLC) was over 100 µM. It also gave a TGI (SF-295 CNS) of over 100 µM, a TGI (HCC-2998 colon) of over 100 µM and a TGI (T-47D breast) of over 100 µM. It also gave a TGI (SK-MEL-2 melanoma) of over 100 µM, a TGI (SR leukemia) of over 100 µM and a TGI (UO-31 renal) of over 100 µM. For the same compound, the TGI (MALME-3M melanoma) was over 100 µM, the TGI (OVCAR-8 ovarian) was over 100 µM and the TGI (SNB-75 CNS) was over 100 µM. It also gave a TGI (ACHN renal) of over 100 µM, a TGI (TK-10 renal) of over 100 µM and a TGI (SK-MEL-28 melanoma) of over 100 µM. The TGI (SF-268 CNS) was over 100 µM, the TGI (SK-MEL-5 melanoma) was over 100 µM and the TGI (HL-60(TB) leukemia) was over 100 µM. It also gave a TGI (MCF7 breast) of over 100 µM, a TGI (K-562 leukemia) of over 100 µM and a TGI (SK-OV-3 ovarian) of over 100 µM. The TGI (KM12 colon) was over 100 µM, the TGI (IGROV1 ovarian) was over 100 µM and the TGI (NCI-H226 lung) was over 100 µM. For the same compound, the TGI (U251 CNS) was over 100 µM, the TGI (BT-549 breast) was over 100 µM and the TGI (HCT-116 colon) was over 100 µM. It also gave a TGI (786-0 renal) of over 100 µM, a TGI (UACC-257 melanoma) of over 100 µM and a TGI (MDA-MB-435) of over 100 µM. The TGI (HT29 colon) was over 100 µM.
